Data on one sequence can be found in article PMC2999418, “Biological Activity and Binding Site Characteristics of the PA1b Entomotoxin on Insects from Different Orders” (Journal of Insect Science, 2007).

The test system of one data set is Sitophilus granarius. The data set can be described thus: Toxicity assay on cereal weevil adults, toxin in food, survival analysis. Format: in vivo. The conditions noted are these: S. granarius Brayard strain. The procedure:
(§1) Cereal weevils (Sitophilus oryzae, S. zeamais and S. granarius, Coleoptera) were reared for more than 10 years in our laboratory on wheat seeds at […] 70% RH. Resistant strains were reared on pea seeds. Tests and survival analysis were performed on adults, as fully described in Louis et al ([2004]).
(§2) All toxicity assays were carried out using a mixture of PA1b isoforms (98% purity by HPLC). All tests were performed on at least 30 insects for assays and for control test (without toxin), except for the three aphid species (50 insects) and for Trichogramma (more than 300 eggs by assays). When adults were used, the insects were synchronized at the imaginal molt. The statistical analyses were performed using the JMP software (SAS, Grégy-sur-Yerres FRA).

The next data set deals with Sitophilus oryzae. Described as above. The format is in vivo. Particulars: dose-response, PA1b isoform mixture in food, confidence interval in brackets. The procedure: as §1, §2
The next data set concerns Sitophilus zeamais. The description is as above. Format: in vivo. Particulars: S. zeamais LS strain, day 7, confidence interval in brackets. How it is done: as §1, §2
For a further data set, the system named is Harmonia axyridis. The experiment in a line: Ladybeetle development and survival on artificial diet supplemented with toxin. The format is in vivo. The conditions noted are these: 250 µg/g of food. The procedure: The ladybeetle Harmonia axyridis (Coleoptera) was grown on a pork liver-based artificial diet (Specty et al., unpublished results), and tests were performed using a diet supplemented with the toxin. The development was monitored from L3 up to the pupal stage.
as §2
Figure 1. Effects of PA1b on the lady beetle H. axyridis. Tests were done with artificial diet supplemented with the toxin (250 µg/g), and the development of the insects was monitored daily. First bar, control insects; second bar, tested insects. P, Pupae; pP, Pre-pupae; L4,4th instar larvae; L3, 3rd instar larvae.

Another data set relates to Acyrthosiphon pisum. The data set can be described thus: Aphid growth and toxicity assay on artificial diet with toxin. The format is in vivo. The conditions noted are these: after six days feeding. The procedure:
(§3) Growth and toxicity assays were carried out on the aphids Aphis gossypii, Myzus persicae and Acyrthosiphon pisum, Hemiptera, according to Rahbé and Febvay ([1993]). Larvae of the fruit fly Drosophila melanogaster, Diptera, were provided by Dr. Allemand (UMR 5558 CNRS-UCBL, Lyon, France).
as §2
(§4) Figure 2. Effects of PA1b on three aphid species. Tests were carried out with artificial diet supplemented with the toxin at increasing concentrations, and mortality of the insects was monitored daily (relative larval survival is used in the graph). Circle : A. pisum; Square : M. persicae; Triangle : A. gossypii.

The next data set deals with Aphis gossypii. The description is as above. The format is in vivo. Particulars: 1000 µg.ml^-1 in artificial diet. The procedure: as §3, §2, §4
For a further data set, the system named is Myzus persicae. The description is as above. Particulars: doses up to 1000 µg.ml^-1 in artificial diet. Format: in vivo. The procedure: as §3, §2, §4
For data set [1], the system named is A. gossypii protein extracts. The data set can be described thus: PA1b degradation assay with total insect protein extract. The format is in vitro ADME, Aphis gossypii. The conditions noted are these: 200 µg A. gossypii (L4) proteins, 10 µg PA1b in 100 µl, 20 mM buffers pH 3 to 9, 30°C, one night incubation; C18 HPLC, UV 210 nm; mean of triplicates. How it is done: The isolation of membrane proteins for binding studies was performed as described by Gressent et al. ([2003]). For PA1b degradation tests, insect extracts were prepared as follows, 1 g of insects were ground with a mortar and pestle in liquid nitrogen. The resulting powder was resuspended in 2 ml of extraction buffer (20 mM Tris-HCl pH 8; 0.25 M sucrose; 2 mM MgCl2). The slurry was centrifuged for 2 min at 1000 g, and the supernatant was stored at -2O°C until required. All the operations were performed at 4°C.
PA1b degradation assays were performed using 10 µg of peptide (PA1b isoform mixture) in a final volume of 100 µl buffer. […]
For all assays, after a one night incubation, 150 µl of methanol were added to the mixture and incubated for 60 min at 4°C. […] PA1b peptide isoforms were detected by their absorbance at 210 nm, quantified by the measurement of the peak area and with reference to known quantities of pure peptide isoform used as standards.
Figure 3. […] Degradation of PA1b was monitored after incubation by reverse-phase HPLC. […]

For data set [2], the system named is gut extracts from M. brassicae. Format: in vitro ADME, Mamestra brassicae. The conditions noted are these: 400 µg M. brassicae gut proteins per assay, 10 µg PA1b, pH 3 to 9, 30°C, one night incubation; C18 HPLC; data not shown. The procedure: PA1b degradation assays were performed using 10 µg of peptide (PA1b isoform mixture) in a final volume of 100 µl buffer. Assays with commercially (SIGMA, www.sigmaaldrich.com) available enzymes were performed in Glycine-NaOH buffer (20 mM pH 9) at 3O°C for proteinase K (E.C. 3.4.21.64), Tris-HCl buffer (20 mM pH 7.5) + EDTA 10 mM at 37°C for pronase E type XIV, MES-NaOH buffer (20 mM pH 6.2) at 25°C for papain (E.C. 3.4.22.2), Tris-HCl buffer (20 mM pH 7.8) at 25°C for chymotrypsin (E.C. 3.4.21.1), and Tris-HCl buffer (20 mM pH 7.6) at 25°C for trypsin (E.C. 3.4.21.4). Assays were done with 10 µg of each enzyme, and control assays were performed with 10 µg of enzymes denaturated by 10 min boiling. Assays with insect extracts were carried out in 20 mM buffers from pH 3 to 9 (Glycine-HCl, pH 3; sodium acetate pH 4-5; MES-NaOH pH 6; Tris-HCl pH 7-8; Glycine NaOH pH 9) at 3O°C. […]
For all assays, after a one night incubation, 150 µl of methanol were added to the mixture and incubated for 60 min at 4°C. […] PA1b peptide isoforms were detected by their absorbance at 210 nm, quantified by the measurement of the peak area and with reference to known quantities of pure peptide isoform used as standards. […]

Data set [3] deals with PA1b binding protein on membrane extracts. Particulars: ref Gressent et al (2003), cited from earlier work. From the text:
Table 1. Affinity (Kd) and relative abundance (Bmax) of the PA1b binding protein on membrane extracts from different insect species and strains. | column: Kd (nM); Bmax (pmol/mg of protein)

Like-named read-outs stand apart in the source and are kept apart here.

In general, mortality refers to the percentage killed. High values mean a strong lethal effect, low ones a weak lethal effect. For orientation: Kd means a measure of binding affinity in units of concentration. “ASCNGVCSPFEMPPCGTSACRCIPVGLVIGYCR NPSG (bicyclic or more) [PA1b, plant peptide of 37 amino acids purified from pea (Pisum sativum) seeds; entomotoxic cystine-knot peptide with three disulfide bonds]”: the mortality in the data set on Sitophilus granarius (highest tested dose 1000 µg/g) is given as 27%; with Acyrthosiphon pisum (150 µg.ml^-1 in artificial diet) it was 57%; with Acyrthosiphon pisum (500 µgml^-1 in artificial diet), “total”; with Myzus persicae it was “no mortality”. Further, the “LD50 estimated by extrapolation” value in the data set with Sitophilus granarius (extrapolated, without confidence interval) was “ca. 3500 µg/g”. The “LD50 at day 7” value in the data set on Sitophilus oryzae (S. oryzae strain Bouriz, adults) was 501 [281–984] µg/g; with Sitophilus oryzae (S. oryzae strain Bénin, adults), 446 [251–1584] µg/g; with Sitophilus oryzae (S. oryzae strain WAA42, adults), 489 [290–1318] µg/g. Also, the LC50 in the data set with Sitophilus zeamais is 234 [125–630] µg/g. Besides, the “share of survivors that reached the pupal stage” value in the data set with Harmonia axyridis (by day 12) is “half”. Also, in the data set on Harmonia axyridis (started on L3 larvae, after three days (all control insects reached L4)), the “insects that reached the L4 stage” value was determined as 30%. In the data set on Harmonia axyridis (started on L3 larvae, by day 12 (control 75%)), this sequence registered a survival of 15%. Besides, the lethality in the data set with Aphis gossypii is recorded as 37%. Also, the “recovered PA1b after incubation with insect proteins versus heat-denatured control” value in [1] was “very close to the control test”. Also, in data set [2], the “recovery of PA1b after incubation with native or heat inactivated gut proteins” value is on record as “no difference”. In addition, the Kd in [3] (S. granarius Brayard membrane extracts) was 6.3 nM; in data set [3] (S. zeamais Ls membrane extracts), 9 nM.
